Assay results as given in US20230139025A1, “ANTIOXIDANT FOR USE IN TREATMENT FOR RIBE” (Institute of Hematology and Blood Diseases Hospital, CAMS & …, priority 2021, published 2023).

B1: IL-1α: cytokine added to the in-vitro culture system (protein, UniProt P01583 113-271, looked up)
Interleukin-1 alpha: SAPFSFLSNVKYNFMRIIKYEFILNDALNQSIIRANDQYLTAAALHNLDEAVKFDMGAYKSSKDDAKITVILRISKTQLYVTAQDEDQPVLLKEMPEIPKTITGSETNLLFFWETHGTKNYFTSVAHPNLFIATKQDYWVCLAGGPPSITDFQILENQA

Columns and labels:
HSPCs (CD34+ cells) = assay: γ-H2AX protein by Western blot after cytokine addition to in vitro culture system; assay type: cell-based, human; details: cytokine added to in vitro culture system, FIG. 6H
Description: (A) Flow cytometric analysis of fold change of ROS levels by DCF-DA staining in human CD34^+ cells of in vitro RIBE model; (B) Western blot verified the expression of related signaling pathway at the protein levels.
For the in vitro RIBE model, we cocultured CB-CD34^+ cells with 10 Gy irradiated or nonirradiated human BM cells using a transwell system. After 17 hours of coculture, the CD34^+ cells in the insert (in vitro bystander cells) were collected for subsequent experiments (FIG. 2).
Cytokines may exert multiple functions involving stress and inflammatory responses, which are also associated with RIBE. We observed several cytokines including IL-1, IL-6, IL-8, TNF-α, etc., were increased after irradiation (FIG. 6F). […] Moreover, we added IL-1α or IL-1ra to the in-vitro culture system and then measured the γ-H2AX protein by Western blot.

HSPCs = assay: ROS levels of HSPCs in cytokine-treated groups; assay type: cell-based, human
[1] = system: in vitro bystander human HSPCs; assay: Transplantation of in vitro antioxidant-treated bystander human CD34+ cells into NOG mice; assay type: in vivo; details: for HPC (CD34+CD38+) engraftment in BM: antioxidant treatment in vitro, FIG. 9C
Text: (A) Collected human CD34^+ cells from FIG. 8(A) were transplanted into NOG mice. Mean human cell engraftment (left) after human CD34^+ cells collected from FIG. 8(A) transplanted into NOG mice and bars represent the fold difference of engraftment levels from each group (right, n = 6 to 8 per group). (B-C) Frequency of human CD34^+CD38^- cells (B) and CD34^+CD38^+ cells (C) in the BM of recipient; (D) Mean engraftment level of human cells in the spleen of recipients; and (E) Number of hematopoietic clones formed by human CD34^+ cells of each group (^∗p < 0.05, ^∗∗p <[…] 0.01, ^∗∗∗p < 0.001). For the in vitro RIBE model, we cocultured CB-CD34^+ cells with 10 Gy irradiated or nonirradiated human BM cells using a transwell system. After 17 hours of coculture, the CD34^+ cells in the insert (in vitro bystander cells) were collected for subsequent experiments (FIG. 2). Female NOG mice were irradiated at a dose of 2.0 Gy one day before transplantation. The homing human CD34^+ cells were transplanted into recipients at a dose of 5,000 cells/mouse intravenously. For serial transplantations, 1×10^7 whole BM cells from each primary recipient were intravenously transplanted into secondary recipient mice that were exposed to sublethal irradiation (2.0 Gy). Next, we asked whether the pharmacological inhibition of ROS elevation could protect human HSPCs from functional degradation. We used three antioxidants: N-acetyl-L-cysteine (NAC), sulforaphane (SF) and resveratrol (Res), to eliminate excessive ROS from bystander human HSPCs in vitro. For the in vitro RIBE, the BM cells were treated with NAC, SF or Res for 30 minutes before irradiation, and the antioxidants continued to exist in the coculture system until the CB CD34^+ cells were collected for analysis and some were transplanted into sublethally irradiated NOG mice intravenously (FIG. 7).

[2] = system: in vivo bystander human HSPCs; assay: In vivo RIBE model with antioxidant treatment, transplantation of homing human CD34+ cells into NOG mice; details: FIG. 11C
Description: NOG mice were given antioxidants for 7 days before irradiation.
For the in vivo RIBE model, CD34^+ cells purified from human cord blood (CB) were intravenously injected into 10 Gy irradiated (RIBE group) or nonirradiated (Control group) NOD/Shi-scid/IL-2Rγ^null (NOG) mice separately. After 17 hours, homing human CD34^+ cells (in vivo bystander cells) from recipients were individually detected or sorted for subsequent experiments (FIG. 1).
For the in vivo RIBE, the mice were treated with NAC, SF or Res for 7 days. CB CD34^+ cells were injected into nonirradiated or 10 Gy irradiated NOG mice in either the control, RIBE or RIBE with antioxidant treatment groups. After 17 hours, the homing human CD34^+ cells were sorted individually and transplanted into sublethally irradiated NOG mice (FIG. 10).

Molecule	DNA damage of HSPCs (γ-H2AX protein level) (HSPCs (CD34+ cells))	ROS levels of HSPCs (HSPCs)	myeloid and erythroid engraftment ([1]; antioxidant administration in vitro, BM, vs RIBE group)	HPC (CD34+CD38+) engraftment in BM [1]	HPC (CD34+CD38+) engraftment in BM [2]
IL-1ra: cytokine added to the in-vitro culture system	can slightly increase DNA damage of bystander HSPCs	did not change	–	–	–
Oc1ccc(C=Cc2cc(O)cc(O)c2)cc1 [Res, resveratrol]	–	–	significantly higher myeloid and erythroid engraftment than the RIBE group	could improve HPC engraftment	could improve HPC engraftment in vivo
C[S+]([O-])CCCCN=C=S (centres unmarked) [SF, sulforaphane]	–	–	–	could improve HPC engraftment	–
B1	could loosen DNA damage of HSPCs both in the control and RIBE groups	did not change	–	–	–
